Some test systems named below: OVCAR-8; SF-295; K562; SNB-19; COLO 205; NCI-H522; LOX IMVI; Hs-578T; 786-0; Malme-3M; EKVX; UACC-62; SW-620; SK-OV-3; MDA-MB-435; UACC-257; SF-539; SNB-75; DU-145; MCF7.
Holding throughout (experiment): NCI-60 cell line screen, 48 h

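These data come from cells grown in 96-well plates and exposed to compound for 48 hours at five concentrations. GI50 is the concentration that inhibits growth by half.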 Activity calls are given as the source filed them. No stated cut-off is given here; in the data, active = GI50 up to about 1.1 µM and inactive = higher. A value given as a limit tells only on which side of the number the result lay.

Take `O=[N+]([O-])c1ccc2nnnn2c1`: the GI50 in the assay with OVCAR-8 is 44.1 µM (inactive); with SF-295, 11.3 µM (inactive); in the assay with K562, 3.18 µM (inactive); with SNB-19, 93.8 µM (inactive); with COLO 205, 23.9 µM (inactive); with NCI-H522 it was 3.39 µM (inactive). Further, the GI50 is 5.7 µM (inactive) in the assay on LOX IMVI; 5.38 µM (inactive) in the assay on Hs-578T; 22.2 µM (inactive) with 786-0; 20.9 µM (inactive) with Malme-3M; > 100 µM (inactive) in the assay on EKVX; 13.4 µM (inactive) in the assay on UACC-62. Further, the GI50 was 12.7 µM (inactive) in the assay on SW-620; 42.6 µM (inactive) with SK-OV-3; 11.5 µM (inactive) in the assay with MDA-MB-435; 27.8 µM (inactive) with UACC-257; 14.9 µM (inactive) in the assay on SF-539; 85.3 µM (inactive) in the assay on SNB-75. The figures for the GI50 in the assay with DU-145 and with MCF7 were 37.2 µM (inactive) and 24 µM (inactive), respectively.

On to `COC(=O)CCCC(=O)/C(=N\Nc1ccc(Cl)cc1)Nc1c(Cl)cccc1Cl`, for which the GI50 in the assay on OVCAR-8 was > 100 µM (inactive); in the assay on SF-295 it was 35.2 µM (inactive); in the assay with K562, 48.1 µM (inactive); with SNB-19 it was 35.7 µM (inactive); in the assay with COLO 205, 22.7 µM (inactive); in the assay with NCI-H522, 28.4 µM (inactive). For the same compound, the GI50 in the assay on LOX IMVI is 64.1 µM (inactive); with Hs-578T, 42.8 µM (inactive); with 786-0 it was 86.1 µM (inactive); in the assay with Malme-3M, 97.1 µM (inactive); with EKVX, 51.8 µM (inactive); in the assay on UACC-62, 60 µM (inactive). The GI50 with SW-620 is > 100 µM (inactive); with SK-OV-3, > 100 µM (inactive); with MDA-MB-435, 76.7 µM (inactive); in the assay with UACC-257 it was 59 µM (inactive); with SF-539 it was > 100 µM (inactive); with SNB-75, 27.5 µM (inactive). Besides, the GI50 with DU-145 is 52.4 µM (inactive); with MCF7 it was 53.8 µM (inactive).

Turning to `O=S1(=O)OCCOS(=O)(=O)C1(F)Br`, the GI50 in the assay with OVCAR-8, with SF-295, in the assay on K562, with SNB-19, in the assay with COLO 205 and in the assay on NCI-H522 was > 100 µM (inactive) each time. Moreover, the GI50 in the assay on LOX IMVI, in the assay with Hs-578T, with 786-0, with Malme-3M, with EKVX and with UACC-62 was > 100 µM (inactive) throughout. For the same compound, the GI50 with SW-620, with SK-OV-3, in the assay on MDA-MB-435, in the assay with UACC-257, with SF-539 and with SNB-75 was > 100 µM (inactive) in each case. For the same compound, the GI50 with DU-145 and in the assay with MCF7 was > 100 µM (inactive) throughout.

As to `N#Cc1nc(-c2ccccc2C(=O)O)oc1N`, the GI50 with OVCAR-8, in the assay on SF-295, with K562, in the assay with SNB-19, in the assay on COLO 205 and with NCI-H522 was > 100 µM (inactive) throughout. Besides, the GI50 in the assay with LOX IMVI, with Hs-578T, in the assay with 786-0, in the assay on Malme-3M, in the assay with EKVX and in the assay with UACC-62 was > 100 µM (inactive) in each case. Besides, the GI50 in the assay on SW-620, with SK-OV-3, in the assay with MDA-MB-435, with UACC-257, with SF-539 and with SNB-75 was > 100 µM (inactive) in each case. The GI50 in the assay with DU-145 and with MCF7 was > 100 µM (inactive) each time.

With `COc1ccc2c3c(ccc2c1)NC(C(=O)O)CC3` (stereo not given), the GI50 was 64.4 µM (inactive) in the assay on OVCAR-8; 58.5 µM (inactive) with SF-295; 35.2 µM (inactive) in the assay on K562; 56.8 µM (inactive) in the assay on SNB-19; 39.5 µM (inactive) in the assay on COLO 205; 29.2 µM (inactive) in the assay with NCI-H522. Besides, the GI50 in the assay on LOX IMVI is 46.5 µM (inactive); in the assay with Hs-578T it was 50.4 µM (inactive); in the assay with 786-0 it was 97.7 µM (inactive); in the assay with Malme-3M it was > 100 µM (inactive); with EKVX, 67.8 µM (inactive); in the assay with UACC-62 it was 40.5 µM (inactive). Also, the GI50 in the assay with SW-620 is 35.2 µM (inactive); in the assay on SK-OV-3 it was > 100 µM (inactive); in the assay with MDA-MB-435, 60.4 µM (inactive); in the assay with UACC-257, > 100 µM (inactive); in the assay on SF-539, 80.4 µM (inactive); in the assay on SNB-75 it was 57.7 µM (inactive). The GI50 with DU-145 was > 100 µM (inactive); in the assay on MCF7, 36.4 µM (inactive).

As to `N#CCc1nc(-c2cc3ccccc3oc2=O)cs1`, the GI50 with OVCAR-8 is 63.2 µM (inactive); in the assay on SF-295, 72.6 µM (inactive); with K562, 45.8 µM (inactive); in the assay with SNB-19, > 100 µM (inactive); with COLO 205 it was 67.3 µM (inactive); in the assay on NCI-H522 it was 15.9 µM (inactive). Moreover, the GI50 in the assay with LOX IMVI was 56.9 µM (inactive); in the assay with Hs-578T it was 56.9 µM (inactive); in the assay on 786-0, > 100 µM (inactive); with Malme-3M, 65.8 µM (inactive); with EKVX it was 41.4 µM (inactive); with UACC-62, 18.7 µM (inactive). Further, the GI50 was > 100 µM (inactive) in the assay on SW-620; > 100 µM (inactive) with SK-OV-3; 44.6 µM (inactive) in the assay with MDA-MB-435; 27.1 µM (inactive) in the assay with UACC-257; 83.9 µM (inactive) with SF-539; 19.1 µM (inactive) in the assay on SNB-75. Besides, the values for the GI50 with DU-145 and in the assay with MCF7 were > 100 µM (inactive) and 54.8 µM (inactive), respectively.

Consider `CCOC(=O)C1(Cc2ccc(C)cc2)Cc2ccc(C)cc2C1=O` (stereo not given), for which the GI50 in the assay on OVCAR-8 is 27.2 µM (inactive); in the assay on SF-295, 15.4 µM (inactive); in the assay on K562, 1.88 µM (inactive); in the assay with SNB-19 it was 36.6 µM (inactive); in the assay with COLO 205 it was 11.7 µM (inactive); in the assay with NCI-H522, 6.34 µM (inactive). Further, the GI50 in the assay on LOX IMVI is 12.4 µM (inactive); in the assay with Hs-578T it was 16.3 µM (inactive); with 786-0, 31.1 µM (inactive); in the assay on Malme-3M, 16.4 µM (inactive); in the assay with EKVX, 36.7 µM (inactive); in the assay with UACC-62, 11.8 µM (inactive). The GI50 in the assay on SW-620 was 4.71 µM (inactive); in the assay on SK-OV-3, 24.4 µM (inactive); with MDA-MB-435 it was 2.81 µM (inactive); with UACC-257 it was 18.9 µM (inactive); in the assay with SF-539, 19.8 µM (inactive); in the assay with SNB-75 it was 24.3 µM (inactive). Further, the GI50 with DU-145 is 41.4 µM (inactive); in the assay on MCF7, 6.52 µM (inactive).

On to `CC[C@@]1(O)C(=O)OCc2c1cc1n(c2=O)Cc2c-1nc1ccccc1c2Cl`, for which the GI50 in the assay on OVCAR-8 was 0.0146 µM (active); with SF-295, < 0.01 µM (active); in the assay with K562, 0.0329 µM (active); in the assay with SNB-19, < 0.0107 µM (active); in the assay on COLO 205, 0.658 µM (active); in the assay on NCI-H522 it was < 0.0127 µM (active). The GI50 was < 0.01 µM (active) in the assay with LOX IMVI; 4.52 µM (inactive) in the assay with Hs-578T; < 0.01 µM (active) in the assay with 786-0; 0.239 µM (active) in the assay on Malme-3M; 0.659 µM (active) in the assay on EKVX; < 0.01 µM (active) in the assay with UACC-62. Also, the GI50 in the assay on SW-620 was 0.0348 µM (active); in the assay with SK-OV-3 it was 0.0217 µM (active); in the assay with MDA-MB-435, 0.0984 µM (active); with UACC-257 it was 0.112 µM (active); with SF-539, < 0.01 µM (active); in the assay with SNB-75, 0.0123 µM (active). The GI50 in the assay with DU-145 and with MCF7 was < 0.01 µM (active) in each case.

Consider `O=S1(=O)c2ccccc2N2C(c3ccccc3)=NOC2(c2ccccc2)CC1c1ccc(Br)cc1` (stereo not given), for which the GI50 in the assay with OVCAR-8, in the assay with SF-295, with K562, with SNB-19, with COLO 205 and in the assay with NCI-H522 was > 100 µM (inactive) in each case. In addition, the GI50 with LOX IMVI, with Hs-578T, in the assay on 786-0, in the assay with Malme-3M, with EKVX and with UACC-62 was > 100 µM (inactive) each time. Further, the GI50 in the assay with SW-620, in the assay on SK-OV-3, in the assay on MDA-MB-435, in the assay with UACC-257, in the assay on SF-539 and with SNB-75 was > 100 µM (inactive) in each case. Further, the GI50 in the assay on DU-145 and with MCF7 was > 100 µM (inactive) each time.

As to `COC(=O)[C@@H]1C[C@]2(CC=C(C)C)c3ccccc3N(S(=O)(=O)c3ccccc3)[C@@H]2N1C(=O)OC`, the GI50 in the assay with OVCAR-8 was 20.3 µM (inactive); with SF-295, 24.3 µM (inactive); in the assay on K562 it was 9.55 µM (inactive); in the assay on SNB-19 it was 34.1 µM (inactive); in the assay on COLO 205, 28.2 µM (inactive); in the assay with NCI-H522, 10.3 µM (inactive). In addition, the GI50 with LOX IMVI was 21.5 µM (inactive); in the assay on Hs-578T, 10.6 µM (inactive); in the assay on 786-0 it was 25.1 µM (inactive); in the assay on Malme-3M, 32.5 µM (inactive); in the assay on EKVX, 3.83 µM (inactive); in the assay with UACC-62 it was 4.5 µM (inactive). Moreover, the GI50 in the assay on SW-620 was 40.6 µM (inactive); in the assay with SK-OV-3, 10.6 µM (inactive); with MDA-MB-435 it was 10.4 µM (inactive); with UACC-257, 10.7 µM (inactive); with SF-539, 24.8 µM (inactive); with SNB-75, 13.1 µM (inactive). Besides, the GI50 with DU-145 is > 100 µM (inactive); in the assay with MCF7, 8.87 µM (inactive).

For the origin of these results see ChEMBL document CHEMBL1201862, “PubChem BioAssay data set” (2004).
